Test results reported in PubChem BioAssay AID180 (DTP/NCI, 2004).
Several values for one entry are separate records, joined by “and”; a condition that tells them apart may be missing. Equal values may be shown once.

System: BDF1 mice, Adenocarcinoma 755 s.c., tumor weight T/C
Experiment: NCI In Vivo Anticancer Drug Screen. Data for tumor model Adenocarcinoma 755 (subcutaneous) in B6D2F1 (BDF1) mice
Settings: endpoint: mean tumor weight, higher = larger tumour
Method: The antitumor activity of compounds was measured in mice bearing transplantable tumors. Survival or tumor size were measured and the results are expressed as the measurement made in the treated group (T) divided by the measurement made in the vehicle treated control group (C). The tumor model used in this assay is Adenocarcinoma 755 (subcutaneous) in B6D2F1 (BDF1) mice

[1] = dose: 3.0 mg/kg/injection, schedule: Q01DX011 (ip), vehicle: carboxymethylcellulose (CMC)
[2] = dose: 1500.0 mg/kg/injection, schedule: Q01DX011 (ip), vehicle: other
[3] = dose: 175.0 mg/kg/injection, schedule: Q01DX011 (ip), vehicle: saline

## CCOP(=O)(O)OCC1OC(n2cnc3c(=S)nc[nH]c32)C(O)C1O (stereo unspecified)
[1]
  T/C: 12 % of control
dose: 6.0 mg/kg/injection, schedule: Q01DX011 (ip), vehicle: carboxymethylcellulose (CMC)
  T/C: 2 % of control
dose: 12.0 mg/kg/injection, schedule: Q01DX011 (ip), vehicle: carboxymethylcellulose (CMC)
  T/C: 4 % of control

## CCCCN(C)N=Nc1ccc(CCC(=O)NN)cc1
dose: 31.0 mg/kg/injection, schedule: Q01DX011 (ip), vehicle: carboxymethylcellulose (CMC)
  T/C: 19 % of control

## CC(=O)N1CCCCC1
dose: 12.5 mg/kg/injection, schedule: Q01DX011 (ip), vehicle: other
  T/C: 92 % of control
dose: 25.0 mg/kg/injection, schedule: Q01DX011 (ip), vehicle: other
  T/C: 69 % of control
dose: 50.0 mg/kg/injection, schedule: Q01DX011 (ip), vehicle: other
  T/C: 73 % of control
dose: 100.0 mg/kg/injection, schedule: Q01DX011 (ip), vehicle: other
  T/C: 85 % of control

## Nc1nc(=S)c2ncn(C3OC(CO)C(O)C3O)c2[nH]1 (stereo unspecified)
dose: 0.03 mg/kg/injection, schedule: Q01DX011 (ip), vehicle: carboxymethylcellulose (CMC)
  T/C: 43 % of control
dose: 0.07 mg/kg/injection, schedule: Q01DX011 (ip), vehicle: carboxymethylcellulose (CMC)
  T/C: 90 % of control
dose: 0.13 mg/kg/injection, schedule: Q01DX011 (ip), vehicle: carboxymethylcellulose (CMC)
  T/C: 81 % of control
dose: 0.5 mg/kg/injection, schedule: Q01DX011 (ip), vehicle: carboxymethylcellulose (CMC)
  T/C: 29 % of control and 37 % of control
dose: 1.0 mg/kg/injection, schedule: Q01DX011 (ip), vehicle: carboxymethylcellulose (CMC)
  T/C: 6 % of control and 7 % of control
dose: 1.5 mg/kg/injection, schedule: Q01DX011 (ip), vehicle: carboxymethylcellulose (CMC)
  T/C: 4 % of control
dose: 1.5 mg/kg/injection, schedule: Q01DX011 (ip), vehicle: methylcellulose (MC)
  T/C: 2 % of control
dose: 2.0 mg/kg/injection, schedule: Q01DX011 (ip), vehicle: carboxymethylcellulose (CMC)
  T/C: 4 % of control
[1]
  T/C: 3 % of control
dose: 3.0 mg/kg/injection, schedule: Q01DX011 (ip), vehicle: methylcellulose (MC)
  T/C: 1 % of control

## O=c1[nH]c(=O)n(C2CC(O)C(CO)O2)cc1I (stereo unspecified)
dose: 31.25 mg/kg/injection, schedule: Q01DX011 (ip), vehicle: carboxymethylcellulose (CMC)
  T/C: 62 % of control
dose: 62.5 mg/kg/injection, schedule: Q01DX011 (ip), vehicle: carboxymethylcellulose (CMC)
  T/C: 65 % of control
dose: 125.0 mg/kg/injection, schedule: Q01DX011 (ip), vehicle: carboxymethylcellulose (CMC)
  T/C: 28 % of control and 51 % of control

## O=C1NC(=O)C(c2ccccc2)(c2ccc(Cl)cc2Cl)N1 (stereo unspecified)
dose: 28.0 mg/kg/injection, schedule: Q01DX011 (ip), vehicle: carboxymethylcellulose (CMC)
  T/C: 54 % of control
dose: 28.0 mg/kg/injection, schedule: Q01DX011 (ip), vehicle: saline
  T/C: 65 % of control
dose: 56.0 mg/kg/injection, schedule: Q01DX011 (ip), vehicle: carboxymethylcellulose (CMC)
  T/C: 79 % of control
dose: 56.0 mg/kg/injection, schedule: Q01DX011 (ip), vehicle: saline
  T/C: 89 % of control
dose: 112.0 mg/kg/injection, schedule: Q01DX011 (ip), vehicle: carboxymethylcellulose (CMC)
  T/C: 62 % of control
dose: 112.0 mg/kg/injection, schedule: Q01DX011 (ip), vehicle: saline
  T/C: 64 % of control
dose: 224.0 mg/kg/injection, schedule: Q01DX011 (ip), vehicle: saline
  T/C: 24 % of control

## Nc1nc(SCc2ccc(F)cc2)c2ncn(C3OC(CO)C(O)C3O)c2n1 (stereo unspecified)
dose: 3.1 mg/kg/injection, schedule: Q01DX011 (ip), vehicle: methylcellulose (MC)
  T/C: 86 % of control
dose: 6.2 mg/kg/injection, schedule: Q01DX011 (ip), vehicle: methylcellulose (MC)
  T/C: 59 % of control
dose: 12.5 mg/kg/injection, schedule: Q01DX011 (ip), vehicle: methylcellulose (MC)
  T/C: 19 % of control
dose: 25.0 mg/kg/injection, schedule: Q01DX011 (ip), vehicle: methylcellulose (MC)
  T/C: 11 % of control

## NC(=O)c1cc(N)nc(N)n1
dose: 15.0 mg/kg/injection, schedule: Q01DX011 (ip), vehicle: methylcellulose (MC)
  T/C: 97 % of control
dose: 31.0 mg/kg/injection, schedule: Q01DX011 (ip), vehicle: methylcellulose (MC)
  T/C: 106 % of control
dose: 62.0 mg/kg/injection, schedule: Q01DX011 (ip), vehicle: methylcellulose (MC)
  T/C: 114 % of control
dose: 125.0 mg/kg/injection, schedule: Q01DX011 (ip), vehicle: methylcellulose (MC)
  T/C: 45 % of control

## CC(=O)OCC1OC(n2ncc(=O)[nH]c2=O)C(OC(C)=O)C1OC(C)=O (stereo unspecified)
dose: 187.5 mg/kg/injection, schedule: Q01DX011 (ip), vehicle: other
  T/C: 115 % of control
dose: 375.0 mg/kg/injection, schedule: Q01DX011 (ip), vehicle: other
  T/C: 121 % of control
[2]
  T/C: 43 % of control

## CS(=O)(=O)OCCC(=O)NCCCNC(=O)CCOS(C)(=O)=O
dose: 28.0 mg/kg/injection, schedule: Q01DX011 (ip), vehicle: methylcellulose (MC)
  T/C: 85 % of control
dose: 52.0 mg/kg/injection, schedule: Q01DX011 (ip), vehicle: methylcellulose (MC)
  T/C: 49 % of control

## O=C(CCCl)N1CCN(C(=O)CCCl)CC1
dose: 11.25 mg/kg/injection, schedule: Q01DX011 (ip), vehicle: methylcellulose (MC)
  T/C: 64 % of control
dose: 22.5 mg/kg/injection, schedule: Q01DX011 (ip), vehicle: methylcellulose (MC)
  T/C: 66 % of control
dose: 44.0 mg/kg/injection, schedule: Q01DX011 (ip), vehicle: saline
  T/C: 86 % of control
dose: 45.0 mg/kg/injection, schedule: Q01DX011 (ip), vehicle: methylcellulose (MC)
  T/C: 80 % of control
dose: 87.5 mg/kg/injection, schedule: Q01DX011 (ip), vehicle: saline
  T/C: 63 % of control
dose: 90.0 mg/kg/injection, schedule: Q01DX011 (ip), vehicle: methylcellulose (MC)
  T/C: 56 % of control
dose: 175.0 mg/kg/injection, schedule: Q01DX011 (ip), vehicle: methylcellulose (MC)
  T/C: 26 % of control and 33 % of control and 50 % of control
[3]
  T/C: 70 % of control
dose: 263.0 mg/kg/injection, schedule: Q01DX011 (ip), vehicle: saline
  T/C: 40 % of control

## CCC(=O)NC
dose: 45.0 mg/kg/injection, schedule: Q01DX011 (ip), vehicle: saline
  T/C: 107 % of control
[3]
  T/C: 81 % of control
dose: 350.0 mg/kg/injection, schedule: Q01DX011 (ip), vehicle: saline
  T/C: 118 % of control
dose: 625.0 mg/kg/injection, schedule: Q#A X022 (ip), vehicle: other
  T/C: 6 % of control
dose: 1000.0 mg/kg/injection, schedule: Q01DX011 (ip), vehicle: other
  T/C: 11 % of control
[2]
  T/C: 6 % of control
dose: 1560.0 mg/kg/injection, schedule: Q01DX011 (ip), vehicle: other
  T/C: 49 % of control
dose: 1750.0 mg/kg/injection, schedule: Q01DX011 (ip), vehicle: other
  T/C: 36 % of control

## CCCCCCCCSc1ncnc2c1ncn2CCCC
dose: 93.0 mg/kg/injection, schedule: Q01DX011 (ip), vehicle: saline
  T/C: 92 % of control
dose: 250.0 mg/kg/injection, schedule: Q01DX011 (ip), vehicle: saline
  T/C: 97 % of control
dose: 375.0 mg/kg/injection, schedule: Q01DX011 (ip), vehicle: saline
  T/C: 77 % of control
